From publication doi:10.1101/2023.11.15.567208 (bioRxiv, 2024)

Columns and labels:
[1] = target: T1, Substance P receptor (NKR1) (Mus musculus, UniProt P30548); assay: Co-culture of DRG neurons with Substance P-sniffer cells, capsaicin-evoked Substance P release; type: cell-based; settings: exogenous Substance P (10 nM); co-culture with WT or DKO DRG
T1 construct: T2A self-cleaving peptide remnant (from the polycistronic P2A-TACR1-T2A cassette) (C); expressed in transfected cells; host or cells: Flp-In T-REx HEK293 (Thermo Fisher Scientific, R78007), lentiviral transduction, hygromycin selection
T1 sequence (P30548 whole entry): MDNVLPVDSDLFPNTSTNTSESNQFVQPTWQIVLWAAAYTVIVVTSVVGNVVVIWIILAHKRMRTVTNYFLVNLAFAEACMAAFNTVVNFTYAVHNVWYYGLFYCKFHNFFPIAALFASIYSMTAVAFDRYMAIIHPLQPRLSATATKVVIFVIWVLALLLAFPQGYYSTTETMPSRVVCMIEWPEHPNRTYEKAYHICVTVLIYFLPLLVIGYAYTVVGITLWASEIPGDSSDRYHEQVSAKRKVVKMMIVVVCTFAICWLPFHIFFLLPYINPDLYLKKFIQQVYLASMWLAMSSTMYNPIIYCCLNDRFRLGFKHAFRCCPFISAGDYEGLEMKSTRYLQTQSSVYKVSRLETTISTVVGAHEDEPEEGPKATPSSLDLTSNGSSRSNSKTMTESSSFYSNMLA

[2] = ref von Euler and Gaddum, 1931 (Substance P); Amara et al., 1982 (CGRPα); cited from earlier work
Description: Among the most challenging diseases to treat is chronic pain. With over 20% of the population suffering from chronic pain, we urgently need to find new analgesic targets ([Nahin et al., 2023]).

[3] = ref Hylden and Wilcox, 1981, Malick and Goldstein, 1978, cited from earlier work
Description: Alternatively, neuropeptides may have opposing effects in different parts of the circuitry meaning global loss of the gene may produce a net effect of no change in a particular behavior.

[4] = target: T2, CGRP receptor (Calcrl and Ramp1) (Mus musculus, UniProt Q9R1W5+Q9WTJ5); assay: CGRP-sniffer HEK293 cells, calcium (GCaMP6s) dose-response; type: cell-based; settings: selectivity control; HEK293 expressing Calcrl, Ramp1, GCaMP6s and Gα15
T2 construct: expressed in transfected cells; host or cells: HEK293; Calcrl/Gα15/GCaMP6s by PiggyBac transposase (puromycin), Ramp1 by pSBbi-Neo-cmv-TETo2-RAMP1 IRES-mTagBFP2-NLS (geneticin); doxycycline-induced
T2 sequence (Q9R1W5 23-463): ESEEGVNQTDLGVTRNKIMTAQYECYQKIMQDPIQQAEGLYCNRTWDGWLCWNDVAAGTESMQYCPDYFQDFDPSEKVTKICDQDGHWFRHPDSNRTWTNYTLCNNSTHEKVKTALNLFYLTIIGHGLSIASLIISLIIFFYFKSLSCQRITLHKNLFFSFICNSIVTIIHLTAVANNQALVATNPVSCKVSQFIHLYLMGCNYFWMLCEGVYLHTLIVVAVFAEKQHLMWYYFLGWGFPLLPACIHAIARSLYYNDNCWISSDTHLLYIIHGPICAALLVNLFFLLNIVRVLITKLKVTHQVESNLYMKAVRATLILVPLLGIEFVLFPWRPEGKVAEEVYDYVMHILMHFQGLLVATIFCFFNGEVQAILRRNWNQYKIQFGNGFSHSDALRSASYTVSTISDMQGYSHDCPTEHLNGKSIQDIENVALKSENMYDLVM
T2 sequence (Q9WTJ5 27-148): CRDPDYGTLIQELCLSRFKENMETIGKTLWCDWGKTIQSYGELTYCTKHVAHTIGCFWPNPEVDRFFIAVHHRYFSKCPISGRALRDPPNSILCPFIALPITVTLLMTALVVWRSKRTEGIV
Description: The copyright holder for this preprint
(1 picture or pasted object on this page, not shown here)

For “Substance P: 11-amino acid peptide first discovered as a tissue extract with contractile activity”, the “Substance P-sniffer activation by exogenous peptide” value [1] is listed as “activates Substance P-sniffers in both conditions”, the “Contractile or vasodilator activity” value [2] is listed as “contractile activity” and the “Effect in the brain” value ([3]; in the brain) is listed as “analgesic”. The “Effect of infusion into the spinal cord” value ([3]; infusion into the spinal cord) was “elicits pain” and the “Sensitivity of CGRP-sniffer cells” value [4] was “insensitive”.
